Assay results from patent US20260306434A1, “VERY LONG CHAIN FATTY ACIDS FOR USE IN MINERALIZATION” (Epax Norway AS, priority 2023, published 2026).
Each block holds one compound with its values, some of them ahead of it.

Legend:
[1] = system: hFOB 1.19 human foetal osteoblasts; test: Fatty acid composition of hFOB cells (Ex. 4); type: cell-based; settings: 2 μM; 7 days
Description: Total lipids were extracted from homogenised tissue or sonicated extracts of cells (for Ex. 4) following the method previously described by Folch et al., For both skin tissue and whole-body analyses, pooled samples from each tank (n=10 per tank, n=30 per diet group) were analysed for lipid composition. For cells, three individual cell culture flasks per treatment group were analysed. The fatty acid composition was analysed using the method described by Mason and Waller.
Methyl esters were separated and analysed in a GC (Hewlett Packard 6890; HP) with a split injector using an SGE BPX70 capillary column (length, 60 m; internal diameter, 0.25 mm; and film thickness, 0.25 um; SGE Analytical Science) flame ionsation detector, and HP chem Station software. Helium was used as the carrier gas, and both the injector and detector temperatures were 280° C. The oven temperature started at 50° C. for 1.2 min and then increased […] to 170° C. at a rate of 4° C./min, followed by 200° C. at a rate of 0.5° C./min, and finally 280° C. at a rate of 10° C./min. The individual fatty acid peaks were identified by comparing the retention times with validated standards; GLC reference 463 and 85 (Nu-chek Prep, Elysian, MN). The absolute amount of fatty acid per gram of tissue or cells was calculated using 23:0 methyl ester as an internal standard (IS). Unidentified peaks were not included in the total fatty acid calculation.
The VLC-PUFA composition of cells and whole-body extracts was analysed using a Scion TQ 8300 GC-MS/MS with a split/splitless injector (splitless 1 min) with a Restek Rxi-5 ms capillary column (length, 30 m; internal diameter, 0.25 mm; and film thickness, […]). Hydrogen was used as the carrier gas, with split-injection and detector temperatures of 250° C. and 270° C., respectively. The oven temperature started at 90° C. for 1.5 min and was ramped up to 220° C. at a rate of 30° C./min, then 275° C. at a rate of 1.21° C./min, and finally 310° C. at a rate of 6.5° C./min. The instrument was run in MRM mode with 79.1-77.1 and 79-55.1 as transitions for VLC PUFAs and 143.1-55.1 for C23:0. The response factor for DHA (relative to C23:0) was calculated using standard solutions of known concentrations of DHA and C23:0. As no standards for VLC fatty acids were available for the VLC-PUFAs, the same response factor as for DHA was assumed and used to calculate concentrations of VLC-PUFAs.
A human foetal osteoblast cell line (hFOB 1.19, ATCC, CRL-11372) was used in the experiments. Cells were cultured according to the manufacturer's instructions. Basal medium comprised a 1:1 mixture of Ham's F12 Medium Dulbecco's Modified Eagle's Medium with 2.5 mM L-glutamine (without phenol red) (Sigma-Aldrich, Darmstadt, Germany). Complete growth medium was prepared using 0.3 mg/mL G418 (Sigma-Aldrich, Darmstadt, Germany) supplemented with 10% foetal bovine serum (T7524, Sigma-Aldrich, Darmstadt, Germany). Cells were incubated at 34° C., with 5% C02 (In-Vitro Cell NU-8600E, NUAIRE, Minnesota, U.S.) and sub-cultured at approximately 80% confluency at a ratio of 1:4. Growth medium was renewed every 2-3 days. Cells cultured for differentiation were supplemented with osteogenic factors, ascorbic acid (100 μg/mL; A8960, Sigma-Aldrich, Darmstadt, Germany) and β-glycerophosphate (10 mM; G9422, Sigma-Aldrich, Darmstadt, Germany). Once the cells reached confluency, the temperature was increased to 37° C. to stop proliferation and induce differentiation. The osteogenic media was renewed every 2-3 days.
Fatty acids were added to the growth media in the form of their sodium salts bound to bovine serum albumin (BSA, Sigma-Aldrich, Darmstadt, Germany; 2.7:1 molar ratio). The pH was adjusted to 7 using NH4OH. n-3 VLC-PUFA (the VLC-PUFA concentrate of Table 3.1, right column) and DHA (Sigma-Aldrich, Darmstadt, Germany) concentrates were prepared as 1 and 8 mM stocks, respectively, and were added to the media at concentrations of 1 and 2 μM. […]

[2] = system: primary Atlantic salmon keratocytes; test: Cell migration of primary Atlantic salmon keratocytes from scales (Ex. 2); type: cell-based; settings: 25 ng/mL; 24 h; vs control (P=0.0145)
Description: In these cell culture experiments fatty acids were added to growth media in the form of their sodium salts bound to bovine serum albumin (BSA; 2.7:1 molar ratio). The pH was adjusted to 7 using NH4OH. DHA was purchased from Sigma (Sigma Aldrich, Darmstadt, Germany). The n-3 VLCPUFA 26:6 n-3 and VLC-Conc2 (Table 1.1) were both prepared as 1-mM stock solutions and DHA was prepared as an 8-mM stock solution. All fatty acid solutions were stored at −80° C.
Growth medium (GM) was prepared as L-15 (11544436, Fischer Scientific) supplemented with 5% FBS (F2442, Sigma-Aldrich), 1% anti/anti (A5955, Sigma-Aldrich; 15240062 Fischer Scientific), and 1% HEPES (H0887, Sigma-Aldrich). The test substrates added were either 25 ng/mL fibroblast growth factor (FGF) (106096-93-9, Sigma-Aldrich), 10 μM VLCPUFA (26:6 n-3), or 20 μM VLCPUFA (26:6 n-3). Controls were left untreated. […]
The day after isolation, all wells were inspected under a microscope to determine the migration potential of the scales. All scales with migration were counted to determine the immediate effect of the VLCPUFA on cell migration. […] The number of scales with cell migration was counted and divided by the number of attached scales to calculate the percentage of scales with cell migration, as attachment is a prerequisite for cell migration. […]
For histology, five fish from each tank, giving a total of 15 fish per treatment, were analysed. […]

14:0, mean [1]: 38.3 μg/g sample
16:0, mean [1]: 648.5 μg/g sample
16:2 n-6, mean [1]: 52.5 μg/g sample
17:0, mean [1]: 12.5 μg/g sample
18:0, mean [1]: 315.8 μg/g sample
18:1 n-7, mean [1]: 135.0 μg/g sample
18:1 n-9, mean [1]: 554.6 μg/g sample
18:2 n-6, mean [1]: 40.6 μg/g sample
18:3 n-6, mean [1]: 11.5 μg/g sample
20:0, mean [1]: 10.1 μg/g sample
20:1 n-9, mean [1]: 16.2 μg/g sample
20:1 n-11, mean [1]: 7.1 μg/g sample
20:2 n-6, mean [1]: 18.8 μg/g sample
20:3 n-6, mean [1]: 20.6 μg/g sample
20:4 n-3, mean [1]: 8.8 μg/g sample
20:4 n-6, mean [1]: 106.7 μg/g sample
20:5 n-3, mean [1]: 19.3ab μg/g sample
22:0, mean [1]: 7.3 μg/g sample
22:4 n-6, mean [1]: 13.7 μg/g sample
22:5 n-3, mean [1]: 26.2 μg/g sample
24:1 n-9, mean [1]: 3.9 μg/g sample
24:5 n-3, mean [1]: 76.5 μg/g sample
24:6 n-3, mean [1]: 56.5 μg/g sample
26:5 n-3, mean [1]: 1.7ab μg/g sample
26:6 n-3, mean [1]: 3.3ab μg/g sample
28:8 n-3, mean [1]: 0.0a μg/g sample
SUM EPA/DHA, mean [1]: 115.6b μg/g sample
SUM FA, mean [1]: 2670.3 μg/g sample
Sum of MUFAs, mean [1]: 871.5 μg/g sample
Sum of SFAs, mean [1]: 1045.0 μg/g sample
Sum of n-3 PUFAs, mean [1]: 164.0ab μg/g sample
Sum of n-6 PUFAs, mean [1]: 226.2 μg/g sample
Sum others, mean [1]: 168.3 μg/g sample
Compound: CC/C=C\C/C=C\C/C=C\C/C=C\C/C=C\C/C=C\CCC(=O)O [DHA, docosahexaenoic acid]

Compound: fibroblast growth factor [FGF]
scales with cell migration [2]: significant difference
